Each compound was assayed on Caco-2 (assay: Apparent permeability across Caco-2 cells). Conditions: Homo sapiens.
Type: functional, cell-based
Compound `C[C@@H](NC(=O)CCC(=O)OCCNC(=S)Nc1ccc(-c2c3ccc(=O)cc-3oc3cc(O)ccc23)c(C(=O)O)c1)C(=O)NCCCC(=O)N[C@H](CCCNC(=N)N)C(=O)N[C@H](CCCNC(=N)N)C(=O)N[C@H](CCCNC(=N)N)C(=O)N[C@H](CCCNC(=N)N)C(=O)N[C@H](CCCNC(=N)N)C(=O)N[C@H](CCCNC(=N)N)C(=O)N[C@H](CCCNC(=N)N)C(N)=O` has a Papp of 0.41 ×10⁻⁶ cm/s. With `N=C(N)NCCC[C@@H](NC(=O)[C@@H](CCCNC(=N)N)NC(=O)[C@@H](CCCNC(=N)N)NC(=O)[C@@H](CCCNC(=N)N)NC(=O)[C@@H](CCCNC(=N)N)NC(=O)[C@@H](CCCNC(=N)N)NC(=O)[C@@H](CCCNC(=N)N)NC(=O)CCCNC(=O)[C@@H](CN)NC(=O)CCC(=O)OCCNC(=S)Nc1ccc(-c2c3ccc(=O)cc-3oc3cc(O)ccc23)c(C(=O)O)c1)C(N)=O` the Papp was 0.75 ×10⁻⁶ cm/s. Work on `CC(N)[C@@H](NC(=O)CCC(=O)OCCNC(=S)Nc1ccc(-c2c3ccc(=O)cc-3oc3cc(O)ccc23)c(C(=O)O)c1)C(=O)NCCCC(=O)N[C@H](CCCNC(=N)N)C(=O)N[C@H](CCCNC(=N)N)C(=O)N[C@H](CCCNC(=N)N)C(=O)N[C@H](CCCNC(=N)N)C(=O)N[C@H](CCCNC(=N)N)C(=O)N[C@H](CCCNC(=N)N)C(=O)N[C@H](CCCNC(=N)N)C(N)=O` (some centres undefined) yielded a Papp of 0.48 ×10⁻⁶ cm/s. Compound `O=C(O)c1cc(NC(=S)NCCO)ccc1-c1c2ccc(=O)cc-2oc2cc(O)ccc12` has a Papp of 0.26 ×10⁻⁶ cm/s.

From ChEMBL document CHEMBL1149687, “Development of oligoarginine-drug conjugates linked to new peptidic self-cleavable spacers toward effective intestinal absorption” (Bioorg Med Chem Lett, 2007)
